Where two headings read alike, the source gives them in different places.
What was measured:
[1] = target: T1, AXL (Homo sapiens, UniProt P30530); experiment: Inhibition of purified recombinant AXL kinase; type: biochemical
T1 sequence (P30530 26-894): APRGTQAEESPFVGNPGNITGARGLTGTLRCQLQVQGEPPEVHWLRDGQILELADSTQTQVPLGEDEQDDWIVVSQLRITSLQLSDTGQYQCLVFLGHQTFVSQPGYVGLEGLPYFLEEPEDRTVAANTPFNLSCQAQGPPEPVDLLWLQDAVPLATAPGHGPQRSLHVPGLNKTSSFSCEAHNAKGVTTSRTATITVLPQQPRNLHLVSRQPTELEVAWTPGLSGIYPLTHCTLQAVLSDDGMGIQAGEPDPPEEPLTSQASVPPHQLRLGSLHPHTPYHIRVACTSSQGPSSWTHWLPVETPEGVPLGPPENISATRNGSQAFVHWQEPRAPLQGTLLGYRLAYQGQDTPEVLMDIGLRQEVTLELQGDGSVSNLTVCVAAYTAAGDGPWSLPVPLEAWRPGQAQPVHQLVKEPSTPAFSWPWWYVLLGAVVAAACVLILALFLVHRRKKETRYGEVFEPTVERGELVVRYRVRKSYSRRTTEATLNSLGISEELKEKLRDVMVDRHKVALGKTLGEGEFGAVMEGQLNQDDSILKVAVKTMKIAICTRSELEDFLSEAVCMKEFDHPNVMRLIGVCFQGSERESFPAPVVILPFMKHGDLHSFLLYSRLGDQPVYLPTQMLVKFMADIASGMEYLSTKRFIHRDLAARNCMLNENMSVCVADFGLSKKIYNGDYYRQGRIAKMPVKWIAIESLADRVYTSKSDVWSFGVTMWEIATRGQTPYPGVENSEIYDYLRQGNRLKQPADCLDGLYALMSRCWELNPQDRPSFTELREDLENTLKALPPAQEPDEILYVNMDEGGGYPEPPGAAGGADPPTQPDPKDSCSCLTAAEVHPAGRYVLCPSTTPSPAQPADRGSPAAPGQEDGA
Text: (§1) Purified recombinant AXL kinase was used to screen a library of structures with appropriate drug-like scaffolds to identify potential inhibitors. Hits from the screen were confirmed and r analyzed by selection criteria including Lipinski rules. One pyrrolopyrimidine-based compound was selected for structure-activity relationship efforts. Optimization of this scaffold and subsequent evaluation led to the generation of compound SG1-7079 as the lead candidate inhibitor (FIG. 10). […] SGI-7079 was screened against a panel of protein kinases to determine both selectivity and biochemical potency.

[2] = target: T2, Flt3 (Homo sapiens, UniProt P36888); experiment: Protein kinase panel; type: biochemical
T2 sequence (P36888 27-993): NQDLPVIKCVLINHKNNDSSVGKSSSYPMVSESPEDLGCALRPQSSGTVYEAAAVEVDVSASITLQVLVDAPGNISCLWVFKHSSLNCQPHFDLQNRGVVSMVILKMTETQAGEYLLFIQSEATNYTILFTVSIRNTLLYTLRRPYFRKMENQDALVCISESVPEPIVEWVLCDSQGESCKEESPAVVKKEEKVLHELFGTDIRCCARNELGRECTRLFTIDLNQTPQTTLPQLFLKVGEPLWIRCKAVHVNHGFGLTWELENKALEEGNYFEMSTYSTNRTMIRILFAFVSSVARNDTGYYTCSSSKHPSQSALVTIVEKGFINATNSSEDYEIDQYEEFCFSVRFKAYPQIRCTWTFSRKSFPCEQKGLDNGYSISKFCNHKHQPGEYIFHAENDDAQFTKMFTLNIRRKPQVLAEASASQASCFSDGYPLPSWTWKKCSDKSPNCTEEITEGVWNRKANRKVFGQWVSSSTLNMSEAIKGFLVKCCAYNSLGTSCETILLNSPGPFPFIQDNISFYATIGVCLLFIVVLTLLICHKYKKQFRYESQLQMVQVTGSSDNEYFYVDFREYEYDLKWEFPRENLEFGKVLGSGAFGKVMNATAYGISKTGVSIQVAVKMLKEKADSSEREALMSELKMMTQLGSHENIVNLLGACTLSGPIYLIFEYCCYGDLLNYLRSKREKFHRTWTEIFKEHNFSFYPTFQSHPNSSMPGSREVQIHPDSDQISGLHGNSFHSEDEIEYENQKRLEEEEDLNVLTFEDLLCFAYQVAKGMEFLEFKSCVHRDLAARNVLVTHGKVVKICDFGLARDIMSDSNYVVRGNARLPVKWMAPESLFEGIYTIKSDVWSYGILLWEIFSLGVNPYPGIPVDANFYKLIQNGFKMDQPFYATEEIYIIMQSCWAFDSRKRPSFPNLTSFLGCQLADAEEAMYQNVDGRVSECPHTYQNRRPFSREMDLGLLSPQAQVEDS
Text: as §1

[3] = target: Syk (Homo sapiens, UniProt P43405); experiment: Protein kinase panel; type: biochemical
Text: as §1

[4] = target: TrkB (Homo sapiens, UniProt Q16620); experiment: Protein kinase panel; type: biochemical
Chain of TrkB (Q16620 32-822, species assumed): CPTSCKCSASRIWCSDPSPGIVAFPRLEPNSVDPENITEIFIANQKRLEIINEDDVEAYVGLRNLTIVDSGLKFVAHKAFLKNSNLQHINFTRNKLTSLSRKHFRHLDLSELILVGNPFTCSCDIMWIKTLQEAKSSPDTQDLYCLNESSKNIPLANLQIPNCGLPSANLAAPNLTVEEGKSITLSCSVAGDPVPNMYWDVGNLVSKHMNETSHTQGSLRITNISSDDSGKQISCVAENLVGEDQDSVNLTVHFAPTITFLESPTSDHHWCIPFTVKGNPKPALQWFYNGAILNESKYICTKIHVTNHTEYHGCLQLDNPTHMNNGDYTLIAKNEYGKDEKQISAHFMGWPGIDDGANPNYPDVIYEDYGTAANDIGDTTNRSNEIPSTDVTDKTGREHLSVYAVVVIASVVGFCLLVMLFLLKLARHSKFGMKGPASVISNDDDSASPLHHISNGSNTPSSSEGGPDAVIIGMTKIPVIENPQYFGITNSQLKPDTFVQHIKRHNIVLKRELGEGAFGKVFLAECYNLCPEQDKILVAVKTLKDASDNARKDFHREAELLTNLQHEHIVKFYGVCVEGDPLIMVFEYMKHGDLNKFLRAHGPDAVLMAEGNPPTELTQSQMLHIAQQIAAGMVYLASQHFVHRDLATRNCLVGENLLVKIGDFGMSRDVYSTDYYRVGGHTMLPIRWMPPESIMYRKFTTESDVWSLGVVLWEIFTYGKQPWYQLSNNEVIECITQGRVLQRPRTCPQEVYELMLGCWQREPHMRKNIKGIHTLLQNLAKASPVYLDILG
Text: as §1

[5] = tested on: A549; experiment: Proliferation, CellTiter-Glo Luminescent Cell Viability; type: cell-based; settings: single agent
Text: (§2) Average values were used for analysis as described. […] Chou T. C., et al., Quantitative Analysis of Dose-Effect Relationships: The Combined Effects of Multiple Drugs or Enzyme Inhibitors. Adv Enzyme Regul.

[6] = tested on: Calu-1; experiment: as above; type: cell-based; settings: single agent
Text: as §2

[7] = tested on: H1299; experiment: as above; type: cell-based; settings: single agent
Text: as §2

[8] = tested on: H157; experiment: as above; type: cell-based; settings: single agent
Text: as §2

[9] = tested on: H2882; experiment: as above; type: cell-based; settings: single agent
Text: as §2

[10] = tested on: H460; experiment: as above; type: cell-based; settings: single agent
Text: as §2

[11] = tested on: Cells expressing high levels of Axl; experiment: Proliferation of six mesenchymal cell lines expressing high levels of Axl (summary); type: cell-based; settings: single agent
Text: as §2

Ki [1]: 0.0057 µM
Inhibition of Flt3 [2]: potent, low nM inhibition
Inhibition of Syk [3]: potent, low nM inhibition
Inhibition of TrkB [4]: potent, low nM inhibition
IC50 [5]: 0.92 µM
IC50 [6]: 2.44 µM
IC50 [7]: 1.74 µM
IC50 [8]: 0.74 µM
IC50 [9]: 4.29 µM
IC50 [10]: 2.01 µM
SMILES: Cc1c[nH]c2nc(Nc3ccc(N4CCN(C)CC4)c(F)c3)nc(-c3cccc(CC#N)c3)c12 [SGI-7079]
IC50 ([11]; read-out: IC50 range across cell lines): 0.74 to 4.29 µM
IC50 ([11]; read-out: Mean IC50 across cell lines): 1.3 µM

From US20140155397A1, “EMT SIGNATURES AND PREDICTIVE MARKERS AND METHOD OF USING THE SAME” (Board of Regents, priority 2011, published 2014)
